Reference: patent US20040175762A1, “Screening system based on expression of abcg2 half transporter protein” (priority 2001, published 2004)
pKi: −log10 of the molar value. Like-named read-outs stand apart in the source and are kept apart here.

What was measured:
ABCG2 [1] = target: T1, ABCG2 (Homo sapiens, UniProt Q9UNQ0, R482G); experiment: Vanadate sensitive ATPase activity in isolated membranes of ABCG2-expressing Sf9 cells
T1 sequence (Q9UNQ0 1-655 R482G): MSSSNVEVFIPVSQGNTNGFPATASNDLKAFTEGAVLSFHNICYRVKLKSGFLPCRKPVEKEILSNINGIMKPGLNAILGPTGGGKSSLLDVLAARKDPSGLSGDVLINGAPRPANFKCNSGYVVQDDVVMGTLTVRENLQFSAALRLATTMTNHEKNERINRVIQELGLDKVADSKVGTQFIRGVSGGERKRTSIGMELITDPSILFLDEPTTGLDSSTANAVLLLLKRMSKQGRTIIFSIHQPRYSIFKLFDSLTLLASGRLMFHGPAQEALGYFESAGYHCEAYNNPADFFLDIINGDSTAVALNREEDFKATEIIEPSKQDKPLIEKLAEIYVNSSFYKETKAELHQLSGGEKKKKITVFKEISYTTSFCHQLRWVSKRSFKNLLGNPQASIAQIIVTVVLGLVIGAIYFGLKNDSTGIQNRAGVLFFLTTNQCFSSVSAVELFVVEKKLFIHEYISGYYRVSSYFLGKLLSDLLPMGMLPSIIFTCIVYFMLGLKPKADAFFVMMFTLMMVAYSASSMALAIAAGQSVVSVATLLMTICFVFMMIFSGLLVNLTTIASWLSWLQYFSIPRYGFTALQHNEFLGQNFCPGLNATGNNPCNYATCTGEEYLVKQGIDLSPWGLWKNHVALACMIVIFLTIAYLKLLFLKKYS
From the text: FIG. 2: Comparison of the effects of various compounds on the vanadate sensitive ATPase activity in isolated Sf9 membranes of ABCG2 (FIG. 2a) or MDR1 (FIG. 2b) expressing Sf9 cells. […] Data points indicate the mean±S.D. values of at least four measurements, performed in two or three different membrane preparations.
Individual clones expressing high levels of the human ABCG2 were obtained by end-point dilution and subsequent amplification. The clone producing the highest yield of the ABCG2 protein was selected by immunoblotting (see below).
The reaction mixture contained 40 mM MOPS-Tris (pH 7.0), 50 MM KCl, 2 mM dithiothreitol, 500 μM EGTA-Tris, 5 mM Na-azide, 1 mM oubain and 5-20 μg membrane protein. […] The vanadate sensitive faction was determined in the presence of 1 mM Na-orthovanadate.

human MDR1 protein = human MDR1 protein (Homo sapiens, UniProt P08183)
From the text: Data points indicate the mean±S.D. values of at least four measurements, performed in two or three different membrane preparations. Control values show the activity measured in the absence of added compounds.

ABCG2 [2] = target: T1, ABCG2
Method: FIG. 5. Mitoxantrone uptake in intact Sf9 cells expressing ABCG2 variants.
Flow-cytometry determination of MX fluorescence after 30 min incubation at 37° C.
Cells were washed once and suspended in HPMI. Aliquots of the suspension containing 3×10^5 cells were incubated with or without the addition of 5 μM MX, and also with 5 μM MX+10 μM FTC (a specific inhibitor of ABCG2). After an incubation for 30 minutes at 37° C. the cells were washed with ice-cold HPMI medium and than suspended in ice-cold HPMI containing 1.51 μl 10 mg/ml propidium-iodide and stored on ice until the flow cytometry measurements. […] Events were counted up to 15000 and dead cells were excluded based on propidium iodide staining.

ABCG2 [3] = target: T1, ABCG2; experiment: Hoechst dye uptake in intact Sf9 cells expressing ABCG2 (fluorescence spectrophotometry); type: cell-based; parameters: removing the full length human ABCG2 cDNA (G482 variant); expressed in transfected cells; host or cells: Sf9 insect cells infected with recombinant baculovirus
Method: FIG. 6. Hoechst dye uptake followed by fluorescence spectrophotometry in Sf9 cells expressing ABCG2482G (Panel A) or ABCG2 K86M mutant (Panel B). Abscissa: time in seconds. Ordinate: relative fluorescence in arbitrary units.
Hoechst33342 uptake—Hoechst dye uptake (5 μM) was measured in a fluorescence spectrophotometer at 350 nm (excitation)/460 nm (emission), by using 3×10^5 cells in a HPMI solution. This dye becomes fluorescent only in a complex with DNA (Haugland, MP catalogue). The initial increase of fluorescence is due to a rapid dye uptake and nuclear staining in dead cells, while further cellular dye uptake is reflected by an increase in fluorescence. At the end of each experiment, for standardization, a full cellular staining is obtained by the addition of 8 μM digitonin, disrupting the integrity of the cell membrane.

[4] = relative to the ATPase activity measured in the absence of compound

Sequence of human MDR1 protein (P08183 whole entry): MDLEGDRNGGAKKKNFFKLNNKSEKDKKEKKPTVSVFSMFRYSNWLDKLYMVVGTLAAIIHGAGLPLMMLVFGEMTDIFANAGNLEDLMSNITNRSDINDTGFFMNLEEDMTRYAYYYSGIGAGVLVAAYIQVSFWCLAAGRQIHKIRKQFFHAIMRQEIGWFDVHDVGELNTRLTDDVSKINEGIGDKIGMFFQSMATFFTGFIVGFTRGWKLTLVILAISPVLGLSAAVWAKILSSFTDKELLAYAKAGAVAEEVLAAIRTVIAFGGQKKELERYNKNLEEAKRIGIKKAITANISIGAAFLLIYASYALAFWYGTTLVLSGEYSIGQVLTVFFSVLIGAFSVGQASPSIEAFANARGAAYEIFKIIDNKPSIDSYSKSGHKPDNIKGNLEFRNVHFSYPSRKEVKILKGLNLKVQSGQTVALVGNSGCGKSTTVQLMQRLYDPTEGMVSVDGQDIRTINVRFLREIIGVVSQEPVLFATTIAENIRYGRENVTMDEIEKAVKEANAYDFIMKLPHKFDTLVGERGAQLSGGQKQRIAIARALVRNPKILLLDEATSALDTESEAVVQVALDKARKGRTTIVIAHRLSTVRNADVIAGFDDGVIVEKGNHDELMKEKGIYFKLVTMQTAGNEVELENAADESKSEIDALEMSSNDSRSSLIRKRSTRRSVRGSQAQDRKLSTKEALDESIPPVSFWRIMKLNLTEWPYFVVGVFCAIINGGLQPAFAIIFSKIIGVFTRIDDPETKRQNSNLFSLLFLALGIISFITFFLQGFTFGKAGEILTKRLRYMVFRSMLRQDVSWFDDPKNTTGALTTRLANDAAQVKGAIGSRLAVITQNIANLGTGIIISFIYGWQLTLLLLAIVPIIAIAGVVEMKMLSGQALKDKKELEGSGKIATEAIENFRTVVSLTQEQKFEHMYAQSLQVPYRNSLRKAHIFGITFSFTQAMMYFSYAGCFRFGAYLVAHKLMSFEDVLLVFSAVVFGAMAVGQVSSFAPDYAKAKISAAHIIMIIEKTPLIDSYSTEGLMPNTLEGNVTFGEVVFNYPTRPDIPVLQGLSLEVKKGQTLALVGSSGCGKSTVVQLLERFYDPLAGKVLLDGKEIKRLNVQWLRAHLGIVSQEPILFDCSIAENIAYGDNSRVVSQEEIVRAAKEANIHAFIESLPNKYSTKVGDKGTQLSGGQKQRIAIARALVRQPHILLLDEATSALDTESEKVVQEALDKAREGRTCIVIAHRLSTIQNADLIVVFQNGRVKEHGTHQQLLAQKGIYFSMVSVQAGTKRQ

Compound: CC(=O)OCOC(=O)CN(CC(=O)OCOC(C)=O)Cc1cc2c(cc1OC(C)=O)Oc1cc(OC(C)=O)c(CN(CC(=O)OCOC(C)=O)CC(=O)OCOC(C)=O)cc1C21OC(=O)c2ccccc21 [Calcein-AM, calcein acetoxy-methylesther]
- Effect on ABCG2-ATPase activity (ABCG2 [1]; result in words): no effect
- Kact, MDR1-ATPase (human MDR1 protein): about 1 μM
- Stimulation of MDR1-ATPase (human MDR1 protein): 4.5 fold

Compound: COc1cccc2c1C(=O)c1c(O)c3c(c(O)c1C2=O)C[C@@](O)(C(C)=O)C[C@@H]3O[C@H]1C[C@H](N)[C@H](O)[C@H](C)O1 [Daunorubicin]
- Emax (ABCG2 [1]; human, pH 7): 50%
- Kact (ABCG2 [1]; human, pH 7): 2,5 mM

Compound: COc1cccc2c1C(=O)c1c(O)c3c(c(O)c1C2=O)C[C@@](O)(C(=O)CO)C[C@@H]3O[C@H]1C[C@H](N)[C@H](O)[C@H](C)O1 [Doxorubicin]
- Emax (ABCG2 [1]; human, pH 7): 30%
- Kact (ABCG2 [1]; human, pH 7): 5 mM

Compound: COc1ccc2c3c([nH]c2c1)[C@H](C=C(C)C)N1C(=O)[C@@H]2CCCN2C(=O)[C@@H]1C3 [Fumitremorgin C]
- pKi (ABCG2 [1]): 5.89
- Maximum inhibition (%) (ABCG2 [1]; [4]): 74%
- Effect on ABCG2-ATPase activity (ABCG2 [1]; result in words): strongly inhibited
- Effect on active extrusion of fluorescent compounds by ABCG2 482 variants (ABCG2 [2]; 482R, 482G, 482T variants, intact Sf9 cells): inhibited
- Effect on verapamil stimulated MDR1-ATPase activity (human MDR1 protein; 33 μM verapamil): no significant effect
- Effect on MDR1-ATPase activity (human MDR1 protein; basal, result in words): no significant effect

Compound: CCOc1ccc(-c2nc3ccc(-c4nc5ccc(N6CCN(C)CC6)cc5[nH]4)cc3[nH]2)cc1 [Hoechst dye, Hoechst33342]
- Hoechst dye extrusion by ABCG2-expressing Sf9 cells (ABCG2 [3]): actively extrude

Compound: Nc1ncnc2c1ncn2[C@@H]1O[C@H](COP(=O)(O)OP(=O)([O-])OP(=O)([O-])O)[C@@H](O)[C@H]1O.[Mg+2] [MgATP]
- Km (ABCG2 [1]): ~300 µM
- MgATP concentration producing half-maximum membrane ATPase activity (ABCG2 [1]): 0.3 mM
- Km (ABCG2 [1]; read-out: KM ATP, without an added substrate): 600 µM

Compound: O=C1c2c(O)ccc(O)c2C(=O)c2c(NCCNCCO)ccc(NCCNCCO)c21 [Mitoxantrone]
- Effect on ABCG2-ATPase activity (ABCG2 [1]; human, pH 7): stimulated the ABCG2-ATPase activity in a concentration dependent manner
- Emax (ABCG2 [1]; human, pH 7): 40%
- Kact (ABCG2 [1]; human, pH 7): 7 mM
- Mitoxantrone extrusion by ABCG2-expressing Sf9 cells (ABCG2 [2]; intact cells, flow cytometry): actively extrude
- Effect on MDR1-ATPase activity (human MDR1 protein): no significant effect

Compound: CCN1C(=O)C=CC1=O [NEM, N-ethylmaleimide]
- pKi (ABCG2 [1]): 5.00

Compound: [Na+].[Na+].[Na+].[O]=[V]([O-])([O-])[O-] [Na-orthovanadate]
- pKi (ABCG2 [1]): ~4.70

Compound: Rhodamine 123
- Kact (ABCG2 [1]): 4,5 mM
- Maximum stimulation (%) (ABCG2 [1]; [4]): 20%
